Patent US20130225548A1, “Pyridine Derivative and Medicinal Agent” (NIPPON SHINYAKU CO., LTD., priority 2010, published 2013)
Structures can show the parent of a compound that is named as a salt.

These molecules were tested against T1, Syk tyrosine kinase (Homo sapiens, UniProt P43405) (assay: Test for Syk tyrosine kinase inhibitory activity (ELISA)). Settings: Syk tyrosine kinase (Carna Biosciences), 25 μM ATP in substrate solution, 30° C. 1 hour, n=2; read-out: Evaluation (IC50, concentration inhibiting the tyrosine kinase activity at 50%).
T1 construct: purchased Carna Biosciences, Inc
Type: biochemical
Summary of the method: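 Syk kinase (0.025 nM stock before addition) with 625 nM biotinylated peptide and 25 μM ATP (substrate-solution levels) in Tris pH 7.5, MgCl2, DTT; 1 h at 30 °C on streptavidin plates. Phosphotyrosine detected by HRP anti-pTyr antibody, TMB, A450; IC50 by non-linear regression.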

| IC50 [nM] | Compound |
| --- | --- |
| 50 to 500 | N#Cc1ccnc(Nc2cc(C3CC3)cc(-c3ccc(CN4CCNC(=O)C4)cc3)n2)c1 [Example 80, 2-[(4-cyclopropyl-6-{4-[(3-oxopiperazin-1-yl)methyl]phenyl}pyridin-2-yl)amino]pyridine-4-carbonitrile hydrochloride] |
| 50 to 500 | CC(=O)N1CCN(Cc2cncc(-c3cc(C4CC4)cc(Nc4cc(C#N)ccn4)n3)c2)CC1 [Example 82, 2-({5′-[(4-acetylpiperazin-1-yl)methyl]-4-cyclopropyl-2,3′-bipyridin-6-yl}amino)pyridine-4-carbonitrile hydrochloride] |
| < 5 | N#Cc1ccnc(Nc2cc(C3CC3)cc(-c3cncc(NC4CCNCC4)c3)n2)c1 [Example 85, 2-{[4-cyclopropyl-5′-(piperidin-4-ylamino)-2,3′-bipyridin-6-yl]amino}pyridine-4-carbonitrile hydrochloride] |
| 5 to 50 | N#Cc1ccnc(Nc2cc(C3CC3)cc(-c3ccnc(CN4CCNCC4)c3)n2)c1 [Example 86, 2-{[4-cyclopropyl-2′-(piperazin-1-ylmethyl)-2,4′-bipyridin-6-yl]amino}pyridine-4-carbonitrile hydrochloride] |
| 5 to 50 | N#Cc1ccnc(Nc2cc(C3CC3)cc(-c3ccnc(CN4CCNC(=O)C4)c3)n2)c1 [Example 87, 2-({4-cyclopropyl-2′-[(3-oxopiperazin-1-yl)methyl]-2,4′-bipyridin-6-yl}amino)pyridine-4-carbonitrile hydrochloride] |
| < 5 | N#Cc1ccnc(Nc2cc(C3CC3)cc(-c3cncc(N[C@@H]4CCNC4)c3)n2)c1 [Example 88, 2-({4-cyclopropyl-5′-[(3R)-pyrrolidin-3-ylamino]-2,3′-bipyridin-6-yl}amino)pyridine-4-carbonitrile hydrochloride] |
| < 5 | N#Cc1ccnc(Nc2cc(C3CC3)cc(-c3cncc(N[C@H]4CCNC4)c3)n2)c1 [Example 89, 2-{(4-cyclopropyl-5′-[(3S)-pyrrolidin-3-ylamino]-2,3′-bipyridin-6-yl}amino)pyridine-4-carbonitrile hydrochloride] |
| < 5 | N#Cc1ccnc(Nc2cc(C3CC3)cc(-c3cncc(COC4CCNCC4)c3)n2)c1 [Example 91, 2-({4-cyclopropyl-5′-[(piperidin-4-yloxy)methyl]-2,3′-bipyridin-6-yl}amino)pyridine-4-carbonitrile hydrochloride] |
| < 5 | CN(Cc1cncc(-c2cc(C3CC3)cc(Nc3cc(C#N)ccn3)n2)c1)C1CCNCC1 [Example 92, 2-[(4-cyclopropyl-5′-{[N-methyl-N-(piperidin-4-yl)amino]methyl}-2,3′-bipyridin-6-yl)amino]pyridine-4-carbonitrile hydrochloride] |
| 5 to 50 | N#Cc1ccnc(Nc2cc(C3CC3)cc(-c3cncc(NCC4CCNCC4)c3)n2)c1 [Example 94, 2-({4-cyclopropyl-5′-[(piperidin-4-ylmethyl)amino]-2,3′-bipyridin-6-yl}amino)pyridine-4-carbonitrile hydrochloride] |
| < 5 | N#Cc1ccnc(Nc2cc(C3CC3)cc(-c3cncc(NC4CNC4)c3)n2)c1 [Example 95, 2-{[5′-(azetidin-3-ylamino)-4-cyclopropyl-2,3′-bipyridin-6-yl]amino}pyridine-4-carbonitrile hydrochloride] |
| < 5 | N#Cc1ccnc(Nc2cc(C3CC3)cc(-c3cncc(OC4CCNCC4)c3)n2)c1 [Example 96, 2-([4-cyclopropyl-5′-(piperidin-4-yloxy)-2,3′-bipyridin-6-yl]amino)pyridine-4-carbonitrile hydrochloride] |
| < 5 | N#Cc1ccnc(Nc2cc(C3CC3)cc(-c3cncc(NC[C@H]4CCNC4)c3)n2)c1 [Example 97, 2-[(4-cyclopropyl-5′-{[(3S)-pyrrolidin-3-ylmethyl]amino}-2,3′-bipyridin-6-yl)amino]pyridine-4-carbonitrile hydrochloride] |
| < 5 | CN1CCC(Oc2cncc(-c3cc(C4CC4)cc(Nc4cc(C#N)ccn4)n3)c2)CC1 [Example 99, 2-({4-cyclopropyl-5′-[(1-methylpiperidin-4-yl)oxy]-2,3′-bipyridin-6-yl}amino)pyridine-4-carbonitrile hydrochloride] |
| 5 to 50 | N#Cc1ccnc(Nc2cc(C3CC3)cc(-c3cncc(OCCN4CCNCC4)c3)n2)c1 [Example 100, 2-({4-cyclopropyl-5′-[2-(piperazin-1-yl)ethoxy]-2,3′-bipyridin-6-yl}amino)pyridine-4-carbonitrile hydrochloride] |
| 50 to 500 | N#Cc1ccnc(Nc2cc(C3CC3)cc(-c3cnc(N4CCS(=O)(=O)CC4)nc3)n2)c1 [Example 105, 2-({4-cyclopropyl-6-[2-(1,1-dioxidethiomorpholin-4-yl)pyrimidin-5-yl]pyridin-2-yl}amino)pyridine-4-carbonitrile hydrochloride] |
| 5 to 50 | CN(C)CCOc1cncc(-c2cc(C3CC3)cc(Nc3cc(C#N)ccn3)n2)c1 [Example 107, 2-({4-cyclopropyl-5′-[2-(dimethylamino)ethoxy]-2,3′-bipyridin-6-yl}amino)pyridine-4-carbonitrile hydrochloride] |
| 50 to 500 | CC(=O)N1CCCN(c2cncc(-c3cc(C4CC4)cc(Nc4cc(C#N)ccn4)n3)c2)CC1 [Example 110, 2-{[5′-(4-acetyl-1,4-diazepan-1-yl)-4-cyclopropyl-2,3′-bipyridin-6-yl]amino}pyridine-4-carbonitrile hydrochloride] |
| 5 to 50 | N#Cc1ccnc(Nc2cc(C3CC3)cc(-c3cncc(N4CCC(O)C4)c3)n2)c1 (stereo not drawn) [Example 111, 2-{[4-cyclopropyl-5′-(3-hydroxypyrrolidin-1-yl)-2,3′-bipyridin-6-yl]amino}pyridine-4-carbonitrile hydrochloride] |

Further lines, the molecule ahead of its results:

| Compound | IC50 [nM] |
| --- | --- |
| N#Cc1ccnc(Nc2cc(C3CC3)cc(-c3cccc(CN4CCNC(=O)C4)c3)n2)c1 [Example 79, 2-[(4-cyclopropyl-6-{3-[(3-oxopiperazin-1-yl)methyl]phenyl}pyridin-2-yl)amino]pyridine-4-carbonitrile hydrochloride] | 5 to 50 |
| N#Cc1ccnc(Nc2cc(C3CC3)cc(-c3cncc(CN4CCNCC4)c3)n2)c1 [Example 81, 2-{[4-cyclopropyl-5′-(piperazin-1-ylmethyl)-2,3′-bipyridin-6-yl]amino}pyridine-4-carbonitrile hydrochloride] | 5 to 50 |
| N#Cc1ccnc(Nc2cc(C3CC3)cc(-c3cncc(CN4CCN(C(N)=O)CC4)c3)n2)c1 [Example 83, 4-({6-[(4-cyanopyridin-2-yl)amino]-4-cyclopropyl-2,3′-bipyridin-5′-yl}methyl)piperazine-1-carboxamide hydrochloride] | 5 to 50 |
| N#Cc1ccnc(Nc2cc(C3CC3)cc(-c3cccc(CN4CCNCC4)c3)n2)c1 [Example 84, 2-({4-cyclopropyl-6-[3-(piperazin-1-ylmethyl)phenyl]pyridin-2-yl}amino)pyridine-4-carbonitrile hydrochloride] | < 5 |
| N#Cc1ccnc(Nc2cc(C3CC3)cc(-c3cncc(NCCN)c3)n2)c1 [Example 90, 2-({5′-[(2-aminoethyl)amino]-4-cyclopropyl-2,3′-bipyridin-6-yl}amino)pyridine-4-carbonitrile hydrochloride] | < 5 |
| N#Cc1ccnc(Nc2cc(C3CC3)cc(-c3cncc(CNC4CCNCC4)c3)n2)c1 [Example 93, 2-({4-cyclopropyl-5′-[(piperidin-4-ylamino)methyl]-2,3′-bipyridine-6-yl}amino)pyridine-4-carbonitrile hydrochloride] | 5 to 50 |
| N#Cc1ccnc(Nc2cc(C3CC3)cc(-c3cncc(N4CCCNCC4)c3)n2)c1 [Example 98, 2-{[4-cyclopropyl-5′-(1,4-diazepan-1-yl)-2,3′-bipyridin-6-yl]amino}pyridine-4-carbonitrile hydrochloride] | < 5 |
| N#Cc1ccnc(Nc2cc(C3CC3)cc(-c3cncc(OCCN4CCOCC4)c3)n2)c1 [Example 101, 2-({4-cyclopropyl-5′-[2-(morpholin-4-yl)ethoxy]-2,3′-bipyridin-6-yl}amino)pyridine-4-carbonitrile hydrochloride] | 50 to 500 |
| N#Cc1ccnc(Nc2cc(C3CC3)cc(-c3cncc(OC4CNC4)c3)n2)c1 [Example 102, 2-{[5′-(azetidin-3-yloxy)-4-cyclopropyl-2,3′-bipyridin-6-yl]amino}pyridine-4-carbonitrile hydrochloride] | 5 to 50 |
| N#Cc1ccnc(Nc2cc(C3CC3)cc(-c3cncc(OC4CCN(CC(N)=O)CC4)c3)n2)c1 [Example 103, 2-[4-({6-[(4-cyanopyridin-2-yl)amino]-4-cyclopropyl-2,3′-bipyridin-5′-yl}oxy)-piperidin-1-yl]acetamide hydrochloride] | 5 to 50 |
| N#Cc1ccnc(Nc2cc(C3CC3)cc(-c3cncc(OC4CCN(C(N)=O)CC4)c3)n2)c1 [Example 104, 4-({6-[(4-cyanopyridin-2-yl)amino]-4-cyclopropyl-2,3′-pypyridin-5′-yl}oxy)piperidine-1-carboxamide hydrochloride] | 5 to 50 |
| N#Cc1ccnc(Nc2cc(C3CC3)cc(-c3cnc(N4CCCN(C(N)=O)CC4)nc3)n2)c1 [Example 106, 4-(5-{6-[(4-cyanopyridin-2-yl)amino]-4-cyclopropylpyridin-2-yl}pyrimidin-2-yl)-1,4-diazepane-1-carboxamide hydrochloride] | 5 to 50 |
| CN(C)C(C)(C)COc1cncc(-c2cc(C3CC3)cc(Nc3cc(C#N)ccn3)n2)c1 [Example 108, 2-({4-cyclopropyl-5′-[2-(dimethylamino)-2-methylpropoxy]-2,3′-bipyridin-6-yl}amine)pyridine-4-carbonitrile hydrochloride] | 50 to 500 |
| N#Cc1ccnc(Nc2cc(C3CC3)cc(-c3cncc(OCC(N)=O)c3)n2)c1 [Example 109, 2-({6-[(4-cyanopyridin-2-yl)amino]-4-cyclopropyl-2,3′-bipyridin-5′-yl}oxy)acetamide hydrochloride] | 5 to 50 |
